Here are results for 19 compounds from US10221177B2 (HYDRA BIOSCIENCES, INC., priority 2014, dated 2019).

The experiment addresses human TRPA1 (Homo sapiens (Human), UniProt O75762). Put plainly: In vitro inhibition of human TRPA1, whole cell patch configuration. In kind it is cell-based. As to conditions: current activation 10 μM AITC, tested concentrations 320 pM to 3.2 μM, read-out: hTRPA1 IC50. As to the method:
All currents were recorded in whole-cell configuration using EPC-9 and EPC-10 amplifiers and Patchmaster software (HEKA) or similar. […] The standard bath solution contained 150 mM NaCl, 10 mM HEPES, 10 mM glucose, 4.5 mM KCl, 1 mM EGTA, 3 mM MgCl2, with pH adjusted to 7.4 with NaOH. In some instances, 2 mM CaCl2 was added in place of EGTA and the concentration of MgCl2 was reduced to 1 mM.
Data were collected either by continuous recordings at −60 mV or by applying voltage ramps from a holding potential of −40 mV every 4 s. Continuous recordings were collected at 400 Hz and digitally filtered off-line at 10 Hz for presentation. Voltage ramps were applied from −100 mV or −80 mV to +100 mV or +80 mV over the course of 400 ms, and data were collected at 10 kHz and filtered at 2.9 kHz. Inward and outward currents were analyzed from the ramps at −80 and 80 mV, respectively. Liquid junction potential correction was not used.
Solutions were switched using a gravity-fed continuous focal perfusion system. To achieve rapid temperature changes, two temperature control, and perfusion systems were employed simultaneously. […] Temperatures were confirmed using a thermistor (Warner Instruments, TA-29), with temperatures at the recorded cell estimated to be within +/−2° C. of those reported.
The antagonist effects of compounds of Formula (I) against human TRPA1 (“hTRPA1”) in a whole cell patch configuration were evaluated using the in vitro assay described above.

The structures appear in SMILES notation.

human TRPA1, sequence (O75762 whole entry): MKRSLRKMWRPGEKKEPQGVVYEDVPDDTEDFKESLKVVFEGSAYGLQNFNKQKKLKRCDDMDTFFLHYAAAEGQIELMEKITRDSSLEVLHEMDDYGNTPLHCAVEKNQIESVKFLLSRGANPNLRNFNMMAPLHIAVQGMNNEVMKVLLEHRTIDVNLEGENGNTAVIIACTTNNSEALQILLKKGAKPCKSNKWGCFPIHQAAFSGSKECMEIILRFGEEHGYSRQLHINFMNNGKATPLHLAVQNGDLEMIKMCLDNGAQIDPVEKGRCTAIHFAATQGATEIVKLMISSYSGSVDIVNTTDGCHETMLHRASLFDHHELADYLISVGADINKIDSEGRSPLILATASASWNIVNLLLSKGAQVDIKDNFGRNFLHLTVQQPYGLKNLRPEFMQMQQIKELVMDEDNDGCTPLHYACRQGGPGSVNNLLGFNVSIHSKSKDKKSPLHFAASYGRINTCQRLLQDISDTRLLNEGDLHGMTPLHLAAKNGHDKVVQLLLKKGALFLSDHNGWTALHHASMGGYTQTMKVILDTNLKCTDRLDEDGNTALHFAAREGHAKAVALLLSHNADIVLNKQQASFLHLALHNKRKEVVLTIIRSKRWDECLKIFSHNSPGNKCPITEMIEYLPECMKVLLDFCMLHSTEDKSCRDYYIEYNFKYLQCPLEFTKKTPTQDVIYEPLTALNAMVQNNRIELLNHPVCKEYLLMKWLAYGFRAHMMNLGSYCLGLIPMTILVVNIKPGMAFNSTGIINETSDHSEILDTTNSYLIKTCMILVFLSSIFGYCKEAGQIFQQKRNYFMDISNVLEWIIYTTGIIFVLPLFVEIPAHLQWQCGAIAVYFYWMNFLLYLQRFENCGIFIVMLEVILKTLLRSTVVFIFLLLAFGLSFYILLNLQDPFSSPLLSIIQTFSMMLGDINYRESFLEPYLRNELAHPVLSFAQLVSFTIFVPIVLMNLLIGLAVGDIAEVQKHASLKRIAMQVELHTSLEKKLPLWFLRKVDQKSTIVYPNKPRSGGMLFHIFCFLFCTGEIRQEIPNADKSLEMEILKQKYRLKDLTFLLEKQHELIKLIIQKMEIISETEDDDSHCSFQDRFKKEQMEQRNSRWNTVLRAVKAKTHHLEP

By IC50 is commonly meant the midpoint of a concentration-inhibition curve. Turning to `C[C@@H](C(=O)Nc1cccc(-c2ccc(C(F)(F)F)nc2)n1)n1cnc2c1c(=O)n(Cc1ccon1)c(=O)n2C` [Compound 95, (S)-2-(1-(isoxazol-3-ylmethyl)-3-methyl-2,6-dioxo-2,3-dihydro-1H-purin-7(6H)-yl)-N-(6′-(trifluoromethyl)-[2,3′-bipyridin]-6-yl)propanamide], the IC50 was 9 nM. In the case of `CC(O)Cn1c(=O)c2c(ncn2CC(=O)Nc2cccc(-c3cnc(N4CCC[C@H]4C(F)(F)F)nc3)n2)n(C)c1=O` (stereo partly drawn) [Compound 184, 2-(1-(2-hydroxypropyl)-3-methyl-2,6-dioxo-1,2,3,6-tetrahydropurin-7-yl)-N-(6-(2-((S)-2-(trifluoromethyl)pyrrolidin-1-yl)pyrimidin-5-yl)pyridin-2-yl)acetamide] it was 310 nM; in that of `CC#CCn1c(=O)c2c(ncn2[C@@H](C)C(=O)Nc2csc(-c3ccc(N4CC5C(C4)C5(F)F)nc3)n2)n(C)c1=O` (stereo partly drawn) [Compound 262, (2S)-2-(1-(but-2-yn-1-yl)-3-methyl-2,6-dioxo-2,3-dihydro-1H-purin-7(6H)-yl)-N-(2-(6-(6,6-difluoro-3-azabicyclo[3.1.0]hexan-3-yl)pyridin-3-yl)thiazol-4-yl)propanamide], 1 nM; in that of `CC(=O)Cn1c(=O)c2c(ncn2[C@@H](C)C(=O)Nc2cncc(-c3cnc(N4CC5C(C4)C5(F)F)cn3)n2)n(C)c1=O` (stereo partly drawn) [Compound 164, (2S)—N-(5′-(6,6-difluoro-3-azabicyclo[3.1.0]hexan-3-yl)-[2,2′-bipyrazin]-6-yl)-2-(3-methyl-2,6-dioxo-1-(2-oxopropyl)-2,3-dihydro-1H-purin-7(6H)-yl)propanamide], 21 nM. `Cc1cc(-c2nc(NC(=O)Cn3cnc4c3c(=O)n(CC(F)(F)F)c(=O)n4C)cs2)cnc1C(F)(F)F` [Compound 251, 2-(3-methyl-2,6-dioxo-1-(2,2,2-trifluoroethyl)-2,3-dihydro-1H-purin-7(6H)-yl)-N-(2-(5-methyl-6-(trifluoromethyl)pyridin-3-yl)thiazol-4-yl)acetamide]: the IC50 stood at 219 nM. In the case of `Cc1cc(Cn2c(=O)c3c(ncn3CC(=O)Nc3cccc(N4CC5C(C4)C5(F)F)n3)n(C)c2=O)no1` (stereo not shown) [Compound 213, N-(6-(6,6-difluoro-3-azabicyclo[3.1.0]hexan-3-yl)pyridin-2-yl)-2-(3-methyl-1-((5-methylisoxazol-3-yl)methyl)-2,6-dioxo-2,3-dihydro-1H-purin-7(6H)-yl)acetamide] it was 141 nM; in that of `C[C@@H](C(=O)Nc1cccc(-c2cnc(N3CCC[C@H]3C(F)(F)F)nc2)n1)n1cnc2c1c(=O)n(CC#N)c(=O)n2C` [Compound 45, (S)-2-(1-(cyanomethyl)-3-methyl-2,6-dioxo-2,3-dihydro-1H-purin-7(6H)-yl)-N-(6-(2-((S)-2-(trifluoromethyl)pyrrolidin-1-yl)pyrimidin-5-yl)pyridin-2-yl)propanamide], 4 nM; in that of `CC(=O)Cn1c(=O)c2c(ncn2[C@@H](C)C(=O)Nc2cncc(-c3cnc(C(F)(F)F)nc3)n2)n(C)c1=O` [Compound 6, (S)-2-(3-methyl-2,6-dioxo-1-(2-oxopropyl)-2,3-dihydro-1H-purin-7(6H)-yl)-N-(6-(2-(trifluoromethyl)pyrimidin-5-yl)pyrazin-2-yl)propanamide], 39 nM. In the case of `CC(=O)Cn1c(=O)c2c(ncn2[C@@H](C)C(=O)Nc2ccnc(-c3ccc(N4CC5CC5C4)nc3)n2)n(C)c1=O` (stereo partly drawn) [Compound 46, (2S)—N-(2-(6-(3-azabicyclo[3.1.0]hexan-3-yl)pyridin-3-yl)pyrimidin-4-yl)-2-(3-methyl-2,6-dioxo-1-(2-oxopropyl)-2,3-dihydro-1H-purin-7(6H)-yl)propanamide] it was 22 nM; in that of `CC(=O)Cn1c(=O)c2c(ncn2CC(=O)Nc2cccc(-c3cnc(C(F)(F)F)c(C)c3)n2)n(C)c1=O` [Compound 227, 2-(3-methyl-2,6-dioxo-1-(2-oxopropyl)-2,3-dihydro-1H-purin-7(6H)-yl)-N-(5′-methyl-6′-(trifluoromethyl)-[2,3′-bipyridin]-6-yl)acetamide], 22 nM. The figure for `CCC(=O)Cn1c(=O)c2c(ncn2CC(=O)Nc2cncc(-c3cnc(C(F)(F)F)c(C)c3)n2)n(C)c1=O` [Compound 233, 2-(3-methyl-2,6-dioxo-1-(2-oxobutyl)-2,3-dihydro-1H-purin-7(6H)-yl)-N-(6-(5-methyl-6-(trifluoromethyl)pyridin-3-yl)pyrazin-2-yl)acetamide] is 10 nM.

For the compound `C[C@@H](C(=O)Nc1cccc(-c2cnc(C(F)(F)F)nc2)n1)n1cnc2c1c(=O)n(Cc1ccon1)c(=O)n2C` [Compound 117, (S)-2-(1-(isoxazol-3-ylmethyl)-3-methyl-2,6-dioxo-2,3-dihydro-1H-purin-7(6H)-yl)-N-(6-(2-(trifluoromethyl)pyrimidin-5-yl)pyridin-2-yl)propanamide], the IC50 was 18 nM. The figure for `CCC(=O)Cn1c(=O)c2c(ncn2[C@@H](C)C(=O)Nc2cccc(-c3cnc(OC)c(C(F)(F)F)c3)n2)n(C)c1=O` [Compound 124, (S)—N-(6′-methoxy-5′-(trifluoromethyl)-[2,3′-bipyridin]-6-yl)-2-(3-methyl-2,6-dioxo-1-(2-oxobutyl)-2,3-dihydro-1H-purin-7(6H)-yl)propanamide] is 1 nM. `Cc1cc(Cn2c(=O)c3c(ncn3[C@@H](C)C(=O)Nc3csc(-c4cnc(C(F)(F)F)nc4)n3)n(C)c2=O)no1` [Compound 32, (S)-2-(3-methyl-1-((5-methylisoxazol-3-yl)methyl)-2,6-dioxo-2,3-dihydro-1H-purin-7(6H)-yl)-N-(2-(2-(trifluoromethyl)pyrimidin-5-yl)thiazol-4-yl)propanamide]: the IC50 was determined as 3 nM. In the case of `Cc1cc(Cn2c(=O)c3c(ncn3CC(=O)Nc3cccc(N4CC(F)(F)C4)n3)n(C)c2=O)no1` [Compound 197, N-(6-(3,3-difluoroazetidin-1-yl)pyridin-2-yl)-2-(3-methyl-1-((5-methylisoxazol-3-yl)methyl)-2,6-dioxo-2,3-dihydro-1H-purin-7(6H)-yl)acetamide] it was 294 nM; in that of `CCC(=O)Cn1c(=O)c2c(ncn2[C@@H](C)C(=O)Nc2csc(-c3cnc(N4CC5CC5C4)cn3)n2)n(C)c1=O` (stereo partly drawn) [Compound 270, (2S)—N-(2-(5-(3-azabicyclo[3.1.0]hexan-3-yl)pyrazin-2-yl)thiazol-4-yl)-2-(3-methyl-2,6-dioxo-1-(2-oxobutyl)-2,3-dihydro-1H-purin-7(6H)-yl)propanamide], 3 nM; in that of `C[C@@H](C(=O)Nc1cccc(-c2ccc(N3CC4CC4C3)nc2)n1)n1cnc2c1c(=O)n(CC#N)c(=O)n2C` (stereo partly drawn) [Compound 35, (2S)—N-(6′-(3-azabicyclo[3.1.0]hexan-3-yl)-2,3′-bipyridin-6-yl)-2-(1-(cyanomethyl)-3-methyl-2,6-dioxo-2,3-dihydro-1H-purin-7(6H)-yl)], 6 nM. Turning to `CCC(=O)Cn1c(=O)c2c(ncn2[C@@H](C)C(=O)Nc2csc(-c3ccc(N4CC5CC5C4)nc3)n2)n(C)c1=O` (stereo partly shown) [Compound 33], the 50% inhibitory concentration (IC50) was found to be 1 nM. As to `Cc1ncc(-c2cccc(NC(=O)Cn3cnc4c3c(=O)n(CCO)c(=O)n4C)n2)cc1C(F)(F)F` [Compound 237], the IC50 amounted to 236 nM.
